In this assay the target is NDM-1 (New Delhi metallo-β-Lactamase) (Klebsiella pneumoniae, UniProt C7C422). It is filed as biochemical.
Chain of NDM-1 (New Delhi metallo-β-Lactamase) (C7C422 29-270 limits assumed): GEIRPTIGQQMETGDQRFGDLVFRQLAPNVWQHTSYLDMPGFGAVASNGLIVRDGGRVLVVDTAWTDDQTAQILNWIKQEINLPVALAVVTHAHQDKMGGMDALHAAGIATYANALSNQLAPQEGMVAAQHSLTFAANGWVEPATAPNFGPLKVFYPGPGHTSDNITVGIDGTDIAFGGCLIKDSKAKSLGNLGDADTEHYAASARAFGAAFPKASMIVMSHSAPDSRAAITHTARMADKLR

In the case of `COC(=O)[C@@H]1COC2CSC(CS)N21` (stereo partly shown) [4f], the Ki (as a rule, the dissociation constant of the complex between target and ligand, obtained from inhibition or displacement) amounted to 1.6 ± 0.6 µM.

The values are drawn from PMC5451161 (Tetrahedron, asymmetry, 2016).
